Data on 3 compounds can be found in patent US4289762A, “10-(1,2-Propadienyl) steroids as irreversible aromatase inhibitors” (Merrell Dow Pharmaceuticals Inc., priority 1980, dated 1981).

SMILES strings stand for the structures. pIC50, pKi: −log10 of the molar value. “And” between values parts separate entries of the source, which are not always exact repeats. Identical values can stand only once. “Also recorded” adds a separate entry of the source. Like-named read-outs stand apart in the source and are kept apart here.

Common to all, as to assay: biochemical
In assay [1] the target is T1, aromatase (Homo sapiens, UniProt P11511).
T1 construct: microsomal fraction isolated from human placenta; from tissue; host or cells: human placenta, microsomal fraction
T1 sequence (P11511 1-503): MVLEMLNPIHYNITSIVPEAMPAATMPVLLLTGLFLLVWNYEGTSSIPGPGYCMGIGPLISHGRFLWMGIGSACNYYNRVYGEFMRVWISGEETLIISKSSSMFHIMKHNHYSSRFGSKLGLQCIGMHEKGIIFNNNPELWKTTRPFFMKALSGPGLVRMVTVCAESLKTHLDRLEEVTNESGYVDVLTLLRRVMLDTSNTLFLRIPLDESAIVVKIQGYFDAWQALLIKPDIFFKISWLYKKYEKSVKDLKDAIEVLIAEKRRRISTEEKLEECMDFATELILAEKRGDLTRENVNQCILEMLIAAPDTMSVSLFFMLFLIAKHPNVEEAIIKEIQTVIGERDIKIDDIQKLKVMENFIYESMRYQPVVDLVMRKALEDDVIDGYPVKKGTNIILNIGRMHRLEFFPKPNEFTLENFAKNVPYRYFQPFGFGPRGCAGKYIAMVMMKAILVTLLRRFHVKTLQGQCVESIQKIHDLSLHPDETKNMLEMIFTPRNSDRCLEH
The format is human (placenta microsomal fraction). The note with it: for inhibition at 0.1 µM: inhibitor 0.1 uM; for inhibition at 0.1 µM / inhibition at 1 µM / inhibition at 0.25 µM / inhibition at 2.5 µM: read-out: Percent Inhibition; for inhibition at 1 µM: inhibitor 1.0 uM; for inhibition at 0.25 µM: inhibitor 0.25 uM; for inhibition at 2.5 µM: inhibitor 2.5 uM. On the procedure: In this assay, the inhibitor is preincubated with the enzyme prior to assaying for enzyme activity in the presence of high substrate levels.
(§1) In the time-dependent assay, an amount of the enzyme inhibitor in 100 ul of the assay buffer described above which will provide assay concentrations which are approximately one and ten times the IC50 values are added to 35 ml centrifuge tubes containing 600 ul of the NADPH generating system described above. […] These preparations are mixed using a vortex mixer and incubated for 0, 10, 20 or 40 minutes at 25° C. […] Following vortexing, the enzyme incubation is continued for 10 minutes before being terminated by the addition of chloroform. The amount of radioactivity in the aqueous fraction is determined by scintillation procedures. […] Therefore, the percent enzyme inhibition is expressed as a percentage of the 100 percent enzyme activity value.

For assay [2], the target named is T1, aromatase. The class given is human (placenta microsomal fraction). Particulars: for pKi: time-dependent assay, Table 2, read-out: Apparent Ki. On the procedure: as §1
Compounds which show time-dependent inhibition are then assayed to establish the inhibition constant, Ki, which is the apparent dissociation constant for the enzyme-inhibitor complex. This determination requires measurements at initial velocities of enzyme reaction. […] The enzyme half-life (t1/2) at these different inhibitor concentrations ([In]) is used to determine the Ki by the linear regression equation of the t1/2 vs. 1/[In]. The Ki is equivalent to the inhibitor concentration when t1/2 is equal to zero.

The target of assay [3] is T1, aromatase. The format is biochemical, human (placenta microsomal fraction). On the procedure:
Assay buffer contains 100 mM KCl, 10 mM KH2 PO4, 10 mM dithiothreitol and 1 mM EDTA at pH 8.0. […] These preparations are mixed using a vortex mixer and incubated for 30 minutes at 37° C. with a 95% O2 :5% CO2 gas phase in a Dubinoff shaking incubator.
The enzymatic reaction is terminated by the addition of 10 ml of CHCl3. After vortexing for 20 sec., aqueous/organic emulsions are dispersed and phase separation achieved following centrifugation at 600×g for 10 min. Duplicate 500 ul samples of the upper aqueous phase of each incubation sample are added to 10×75 mm culture tubes. To these tubes, 500 ul of cold 0.25% dextran-coated charcoal suspension is added, vortexed, incubated for 15 min. at 4° C., then centrifuged at 2600×g in a refrigerated centrifuge (4° C.). The supernatant fraction is decanted into a 20 ml scintillation vial and 15 ml of aqueous scintillation cocktail is added. The radioactivity of ^3 H2 O resulting from liberated 1 and 2 tritium atoms during the enzymatic reaction is determined by counting for 10 min. in a liquid scintillation counter. This assay procedure is adapted from the procedures of Reed et al, J. Biol. Chem., 251, 1625 (1976), and Thompson et al, J. Biol. Chem., 249, 5364 and 5374 (1974).

For `C[C@]12C=CC(=O)C=C1C=C[C@@H]1[C@@H]2CC[C@]2(C)C(=O)CC[C@@H]12` [Androsta-1,4,6-triene-3,17-dione], the inhibition (as a rule, the share of the control response that was lost under treatment) at 0.1 µM is 20.5% in assay [1] (preincubation 0 minutes), 45.5% in assay [1] (preincubation 20 minutes) and 54.8% in assay [1] (preincubation 40 minutes). Moreover, the inhibition at 1 µM came out at 88.8% in assay [1] (preincubation 0 minutes), 92.8% in assay [1] (preincubation 20 minutes) and 95.2% in assay [1] (preincubation 40 minutes). Besides, in assay [2], the negative-log Ki (pKi) (as a rule, the negative decadic logarithm of the Ki, by convention in mol/L) is 6.96. For the same compound, the negative-log IC50 (pIC50) (as a rule, the negative decadic logarithm of the IC50, by convention in mol/L) in assay [3] was 7.00.

For the compound `C=C=C[C@]12CCC(=O)C=C1CC[C@@H]1[C@@H]2CC[C@]2(C)C(=O)CC[C@@H]12` [10-(1,2-propadienyl)estr-4-ene-3,17-dione], in assay [1], the “Activity compared with known therapeutic agents / known aromatase inhibitors” value was “superior activity to known therapeutic agents; also recorded: superior to known aromatase inhibitors” and the “Time-dependent inhibition of aromatase” value was “significant time-dependent inhibition of aromatase”. For the same compound, in assay [1] (1 µM), the “Percent Inhibition” value was 50.2 and 69.2 and 84.0. Besides, in assay [2], the “Affinity for the enzyme site relative to natural substrate testosterone (times greater)” value is given as “three times greater”, the “Binding to the enzyme” value was “irreversibly bound to the enzyme”, the “Factor by which enzyme affinity exceeds that of 1-dehydrotestololactone” value came out at 58.1 and the “Factor by which enzyme affinity exceeds that of aminoglutethimide” value was 1,491.2. In assay [2], the “Factor by which enzyme affinity exceeds that of androsta-1,4,6-triene-3,17-dione” value is on record as 8.1. The “Enzyme affinity compared with other known inhibitors” value in assay [3] is “greater enzyme affinity than other known inhibitors”.

In the case of `C[C@]12C=CC(=O)C=C1CC[C@@H]1[C@@H]2CC[C@]2(C)OC(=O)CC[C@@H]12` [1-dehydrotestololactone, 1,2,3,4,4a,4b,7,9,10,10a-Decahydra-2-hydroxy-2,4b-dimethyl-7oxo-l-phenanthrene-propionic acid O-lactone], the inhibition at 0.25 µM came out at 0% in assay [1] (preincubation 0 minutes), 3.6% in assay [1] (preincubation 20 minutes) and 36.1% in assay [1] (preincubation 40 minutes). For the same compound, the inhibition at 2.5 µM in assay [1] (preincubation 0 minutes) turned out to be 24.7%; in assay [1] (preincubation 20 minutes), 82.7%; in assay [1] (preincubation 40 minutes), 96.9%. Besides, the pKi in assay [2] was 5.10. The compound also showed a negative logarithm of the IC50 (pIC50) in assay [3] of 5.60.
